One test deals with ZR-75-1 cells. Kind of test: ZR-75-1 cell proliferation assay (CellTiter-Glo). Particulars: Homo sapiens, ZR-75-1, 240 h, total culture period of 10 days, read-out: ZR-75-1 Proliferation Inhibition IC50. Format: cell-based. The method, then: II. ZR-75-1 cell proliferation assay
• 1. ZR-75-1 cells were seeded in 96-well plates and cultured overnight in an incubator at 37°C & 5% CO2. • 2. Compounds were diluted using culture medium and added to the 96-well plates. The plates were placed back into the incubator for continued culture. Every 5 days, the cells were trypsinized, counted, and re-seeded. After the cells had fully adhered, compounds were added again for incubation, for a total culture period of 10 days. • 3. After the culture period, 60 µL of CellTiter-Glo reagent (Promega, G7573) was added to each well. The plates were protected from light and shaken for 2 minutes to lyse the cells, followed by further incubation at room temperature, protected from light, for 30 minutes. • 4. Luminescence signals were read using a BMG PHERAstar FSX. IC50 values were calculated by nonlinear regression using a four-parameter logistic equation in GraphPad Prism 8 software.
(In general: Cellular ATP, detected with luciferase, serves as a proxy for viable cell number.)

For another test, the target named is T1, KAT6B (Homo sapiens, UniProt Q8WYB5).
T1 construct: purchased Active Motif 81224
T1 sequence (Q8WYB5 whole entry): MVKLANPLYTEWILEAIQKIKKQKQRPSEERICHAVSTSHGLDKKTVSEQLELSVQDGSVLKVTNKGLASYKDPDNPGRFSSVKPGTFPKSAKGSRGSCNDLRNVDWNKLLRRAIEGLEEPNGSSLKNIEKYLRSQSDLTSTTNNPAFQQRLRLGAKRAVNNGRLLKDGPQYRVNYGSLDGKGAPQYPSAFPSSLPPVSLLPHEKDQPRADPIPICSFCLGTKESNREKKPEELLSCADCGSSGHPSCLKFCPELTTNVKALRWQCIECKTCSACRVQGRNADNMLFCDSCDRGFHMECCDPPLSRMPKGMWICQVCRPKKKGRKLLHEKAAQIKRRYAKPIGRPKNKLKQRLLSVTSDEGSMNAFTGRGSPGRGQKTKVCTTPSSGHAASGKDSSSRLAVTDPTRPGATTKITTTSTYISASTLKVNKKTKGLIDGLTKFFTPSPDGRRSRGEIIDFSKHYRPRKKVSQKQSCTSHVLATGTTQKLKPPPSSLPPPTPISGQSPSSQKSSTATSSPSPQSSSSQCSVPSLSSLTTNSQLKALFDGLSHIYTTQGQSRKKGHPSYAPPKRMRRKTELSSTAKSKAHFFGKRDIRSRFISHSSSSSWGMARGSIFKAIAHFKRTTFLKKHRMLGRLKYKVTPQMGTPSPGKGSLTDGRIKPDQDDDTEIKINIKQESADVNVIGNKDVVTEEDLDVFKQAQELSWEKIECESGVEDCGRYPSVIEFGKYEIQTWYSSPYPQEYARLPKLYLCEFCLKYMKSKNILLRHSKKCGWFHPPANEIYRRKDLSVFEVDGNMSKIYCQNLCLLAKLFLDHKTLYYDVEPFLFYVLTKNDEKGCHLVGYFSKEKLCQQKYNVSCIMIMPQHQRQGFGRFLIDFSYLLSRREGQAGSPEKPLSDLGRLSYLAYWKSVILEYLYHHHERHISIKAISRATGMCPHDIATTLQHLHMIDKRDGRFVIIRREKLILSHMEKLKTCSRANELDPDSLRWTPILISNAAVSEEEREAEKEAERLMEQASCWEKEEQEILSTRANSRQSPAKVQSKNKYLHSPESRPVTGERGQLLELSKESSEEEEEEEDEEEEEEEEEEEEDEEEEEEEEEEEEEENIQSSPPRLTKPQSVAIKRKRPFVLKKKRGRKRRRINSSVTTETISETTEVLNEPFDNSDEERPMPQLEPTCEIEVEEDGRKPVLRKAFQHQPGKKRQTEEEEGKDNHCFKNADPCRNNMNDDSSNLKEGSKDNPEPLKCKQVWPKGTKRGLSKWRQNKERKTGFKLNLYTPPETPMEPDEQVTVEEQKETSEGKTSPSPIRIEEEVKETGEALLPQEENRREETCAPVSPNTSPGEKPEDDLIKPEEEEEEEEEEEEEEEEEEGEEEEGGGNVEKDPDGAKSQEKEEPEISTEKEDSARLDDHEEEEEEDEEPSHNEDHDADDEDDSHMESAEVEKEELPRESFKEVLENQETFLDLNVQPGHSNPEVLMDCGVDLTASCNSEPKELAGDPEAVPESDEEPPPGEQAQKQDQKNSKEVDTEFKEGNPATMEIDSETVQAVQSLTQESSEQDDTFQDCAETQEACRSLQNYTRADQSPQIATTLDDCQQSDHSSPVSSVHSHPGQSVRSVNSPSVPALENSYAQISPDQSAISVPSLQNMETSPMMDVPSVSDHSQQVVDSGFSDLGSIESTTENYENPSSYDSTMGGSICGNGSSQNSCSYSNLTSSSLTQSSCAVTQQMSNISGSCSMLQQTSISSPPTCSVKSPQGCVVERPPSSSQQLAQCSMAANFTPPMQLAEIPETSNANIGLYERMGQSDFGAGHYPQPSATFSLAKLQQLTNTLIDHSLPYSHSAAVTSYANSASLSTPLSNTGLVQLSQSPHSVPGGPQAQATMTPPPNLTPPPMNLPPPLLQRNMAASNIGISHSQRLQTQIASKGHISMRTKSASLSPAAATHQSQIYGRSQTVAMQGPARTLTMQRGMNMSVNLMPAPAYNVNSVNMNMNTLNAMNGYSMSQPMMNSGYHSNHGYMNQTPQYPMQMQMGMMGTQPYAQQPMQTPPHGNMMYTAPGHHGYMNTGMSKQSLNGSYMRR
As to the kind of experiment: KATs acetyltransferase enzyme activity assay (TR-FRET), KAT6B. The format is biochemical. To be noted: Biotin-H3 (1-21) and AcCOA, 90 minutes at room temperature. The procedure:
(§1) I. KATs acetyltransferase enzyme activity assay
(§2) • 1. The inhibitory effect of compounds on the acetyltransferase activity of KATs was evaluated using the Time-Resolved Fluorescence Resonance Energy Transfer (TR-FRET) assay. The assay was conducted in 384-well plates using Tris-HCl buffer. • 2. Compounds were diluted in DMSO and transferred to 384-well plates. Enzyme solutions (KAT6: active motif (kit), 81223; KAT6B: active motif, 81224; KAT5: SignalChem, K314-380G; KAT7: ICE, S2210F-H21HF; KAT8: Active motif, 81225) were added and the mixture was incubated at room temperature for 15 minutes. • 3. Subsequently, 2.5 µL of a mixture containing KAT6A/KAT6B: Biotin-H3 (1-21, Genscript, C6829GL060) or KAT5/7/8: Bio-H4 (1-25, Genscript, C736BGL100) AcCOA (Sigma, A2056) was added, and the reaction proceeded at room temperature for 90 minutes. • 4. After the reaction, a detection mixture containing Europium-anti-acetyl-Histone H4 Lysine (H4Kac pan) Antibody (Perkin Elmer, TRF0412) and LANCE Ultra ULight™-Streptavidin in LANCE™ Detection buffer (10x) (Perkin Elmer, CR97-100) was added, followed by incubation at room temperature for 60 minutes. • 5. HTRF signals were measured using a BMG PHERAstar FSX (Ratio: 665nm/620nm). IC50 values were calculated by nonlinear regression using a four-parameter logistic equation in GraphPad Prism 8 software.

The target in a further test is T2, KAT6A (Homo sapiens, UniProt Q92794).
T2 construct: purchased Active Motif 81223
T2 sequence (Q92794 488-778 limits assumed): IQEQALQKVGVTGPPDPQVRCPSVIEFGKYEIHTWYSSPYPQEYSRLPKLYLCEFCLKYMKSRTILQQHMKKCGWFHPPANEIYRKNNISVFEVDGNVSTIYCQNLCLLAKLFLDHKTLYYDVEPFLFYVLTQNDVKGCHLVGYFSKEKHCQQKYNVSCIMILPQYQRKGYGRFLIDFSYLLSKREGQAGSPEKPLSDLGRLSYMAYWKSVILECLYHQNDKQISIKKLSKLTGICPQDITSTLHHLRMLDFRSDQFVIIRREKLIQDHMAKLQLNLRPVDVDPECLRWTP
As to the kind of experiment: KATs acetyltransferase enzyme activity assay (TR-FRET), KAT6A. Format: biochemical. Particulars: Biotin-H3 (1-21) and AcCOA, 90 minutes at room temperature. The procedure: as §1
as §2, with “Enzyme solutions (KAT6: active motif (kit), 81223; KAT6B: active motif, 81224; KAT5: SignalChem, K314-380G; KAT7: ICE, S2210F-H21HF; KAT8: Active motif, 81225) were added and the mixture was incubated at room temperature for 15 minutes. • 3.” left out, “HTRF signals were measured using a BMG PHERAstar FSX (Ratio: 665nm/620nm).” left out

Test [1] has as its system ZR-75-1 H3K23 Acetylation. As to the kind of experiment: Histone H3 acetylation assay (H3K23 acetylation in ZR-75-1 cells). Format: cell-based. Particulars: Homo sapiens, 72 hours incubation, Odyssey CLx fluorescence, read-out: ZR-75-1 H3K23 Acetylation Inhibition IC50. The procedure: III. Histone H3 acetylation assay
• 1. ZR-75-1 cells were seeded at 5000 cells/40 µL per well in 384-well plates and cultured overnight in an incubator at 37°C & 5% CO2. • 2. 40 nL of serially diluted compounds were added to the 384-well plates, followed by further incubation for 72 hours. • 3. The supernatant was discarded, and 8 w/v% paraformaldehyde (final concentration was 4 w/v%) was added directly to the wells to fix the cells at room temperature. • 4. After washing twice with PBS, a permeabilization agent (40 µL of methanol) was added and incubated for 10 minutes to permeabilize the cell membranes. • 5. After washing twice with PBS, a blocking buffer was added and incubated at room temperature for 1 hour for blocking. • 6. The blocking buffer was discarded, and 20 µL of primary antibodies (recombinant Anti-Histone H3 (acetyl K23) antibody and Anti-Histone H4 antibody) diluted in blocking buffer (1:1000 by volume dilution) were added, followed by incubation at 4°C overnight. • 7. After washing three times with PBST (0.05 vol% Tween-20 in PBS), 20 µL of fluorescent secondary antibodies (IRDye 680RD Goat anti-MOUSE, Licor, 926-68070; IRDye 800CW Goat anti-Rabbit, Licor, 926-32211) diluted in blocking buffer (1:2000 by volume dilution) were added, followed by incubation at room temperature, protected from light, for 1 hour. Then, the plates were washed three times with PBST. • 8. Scanning was performed using an Odyssey CLx, and the fluorescence signal value for each well was quantified. IC50 values were calculated by nonlinear regression using a four-parameter logistic equation in GraphPad Prism 8 software.

For `COc1ccc2c(c1S(=O)(=O)Nc1noc3cc(Cn4cccn4)c(F)c(OC)c13)OCC21CC1` [Compound 31, N-(6-((1H-Pyrazol-1-yl)methyl)-5-fluoro-4-methoxybenzo[d]isoxazol-3-yl)-6-methoxy-2H-spiro[benzofuran-3,1'-cyclopropane]-7-sulfonamide], the IC50 with ZR-75-1 cells was 0.3 nM; against KAT6B, 2.7 nM; at KAT6A, 1.3 nM; in test [1] it was 1.1 nM.

For the molecule `COc1cc(Cn2cccn2)cc2onc(NS(=O)(=O)c3cccc4c3OCCCO4)c12` [Compound 1, N-(6-((1H-Pyrazol-1-yl)methyl)-4-methoxybenzo[d]isoxazol-3-yl)-3,4-dihydro-2H-benz o[b] [1,4]dioxepine-6-sulfonamide], the IC50 was 6.7 nM in the test with ZR-75-1 cells, 81.7 nM at KAT6B, 12.9 nM against KAT6A and 9 nM in test [1].

Consider `COc1cc2c(cc1S(=O)(=O)Nc1noc3cc(Cn4cccn4)cc(OC)c13)OCCCO2` [Compound 7, N-(6-((1H-Pyrazol-1-yl)methyl)-4-methoxybenzo[d]isoxazol-3-yl)-8-methoxy-3,4-dihyd ro-2H-benzo[b][1,4]dioxepine-7-sulfonamide], for which the IC50 in the test on ZR-75-1 cells turned out to be 2.4 nM; at KAT6B, 19.2 nM; against KAT6A, 2.7 nM; in test [1], 8.6 nM.

`COc1cc2c(NS(=O)(=O)c3c(OC)ccc4c3OCCCO4)noc2cc1Cn1cccn1` [Compound 15, N-(6-((1H-Pyrazol-1-yl)methyl)-5-methoxybenzo[d]isoxazol-3-yl)-7-methoxy-3,4-dihyd ro-2H-benzo[b][1,4] dioxepine-6-sulfonamide]: the IC50 in the test on ZR-75-1 cells worked out at 0.6 nM; at KAT6B it was 9.3 nM; against KAT6A it was 1.7 nM; in test [1], 1.1 nM.

As to `COc1ccc2c(c1S(=O)(=O)Nc1noc3cc(Cn4cccn4)cc(OC)c13)OCCOC2` [Compound 10, N-(6-((1H-Pyrazol-1-yl)methyl)-4-methoxybenzo[d]isoxazol-3-yl)-8-methoxy-2,3-dihyd ro-5H-benzo [e] [1,4] dioxepine-9-sulfonamide], the IC50 with ZR-75-1 cells came to 1.4 nM; against KAT6B, 19.9 nM; against KAT6A it was 2.2 nM; in test [1], 2.3 nM.

In the case of `COc1ccc2c(c1S(=O)(=O)Nc1noc3cc(Cn4cccn4)c4c(c13)OCC4)OCC1CC21` (stereo not drawn) [Compound 37, N-(4-((1H-Pyrazol-1-yl)methyl)-2,3-dihydrobenzofuro[7,6-d]isoxazol-8-yl)-5-methoxy-1,1a,2,7b-tetrahydrocyclopropa[c]chromene-4-sulfonamide], the IC50 was 0.4 nM in the test with ZR-75-1 cells, 4.1 nM against KAT6B, 1.6 nM against KAT6A and 1.2 nM in test [1].

Take `COc1ccc2c(c1S(=O)(=O)Nc1noc3cc(Cn4cccn4)c(F)c(OC)c13)OCC1CC21` (stereo not drawn) [Compound 30, N-(6-((1H-Pyrazol-1-yl)methyl)-5-fluoro-4-methoxybenzo[d]isoxazol-3-yl)-5-methoxy-1,1a,2,7b-tetrahydrocyclopropa[c]chromene-4-sulfonamide]: the IC50 was found to be 0.15 nM with ZR-75-1 cells, 1.8 nM against KAT6B, 0.8 nM against KAT6A and 0.8 nM in test [1].

As to `COc1ccc2c(c1S(=O)(=O)Nc1noc3cc(Cn4cccn4)c(F)cc13)OCC1CC21` (single isomer, unassigned) [Compound 34], the IC50 with ZR-75-1 cells amounted to 0.04 nM; on KAT6B, 2.2 nM; on KAT6A, 1.2 nM; in test [1], 0.4 nM.

On to `COc1ccc2c(c1S(=O)(=O)Nc1noc3cc(Cn4cccn4)cc(OC)c13)OCC1CC21` (stereo not drawn) [Compound 5, N-(6-((1H-Pyrazol-1-yl)methyl)-4-methoxybenzo[d]isoxazol-3-yl)-5-methoxy-1,1a,2,7b-tetrahydrocyclopropa[c]chromene-4-sulfonamide], for which the IC50 was determined as 0.2 nM with ZR-75-1 cells, 3.7 nM against KAT6B, 1.5 nM against KAT6A and 0.5 nM in test [1].

In the case of `COc1ccc2c(c1S(=O)(=O)Nc1noc3cc(Cn4cccn4)c(C4CC4)cc13)OCCCO2` [Compound 14, N-(6-((1H-Pyrazol-1-yl)methyl)-5-cyclopropylbenzo[d]isoxazol-3-yl)-7-methoxy-3,4-di hydro-2H-benzo[b][1,4]dioxepine-6-sulfonamide], the IC50 was found to be 8.6 nM with ZR-75-1 cells, 12.7 nM on KAT6B, 1.4 nM against KAT6A and 11.5 nM in test [1].

On to `COc1ccc2c(c1S(=O)(=O)Nc1noc3cc(Cn4cccn4)c(OC(F)F)cc13)OCCCO2` [Compound 13, N-(6-((1H-pyrazol-1-yl)methyl)-5-(difluoromethoxy)benzo[d]isoxazol-3-yl)-7-methoxy-3,4-dihydro-2H-benzo [b] [1,4] dioxepine-6-sulfonamide], for which the IC50 in the test with ZR-75-1 cells is 14.2 nM; in test [1], 34.3 nM.

On to `COc1ccc2c(c1S(=O)(=O)Nc1noc3cc(Oc4ccccn4)cc(OC)c13)OC[C@@H]1C[C@H]21` [Compound 48, (1aR,7bS)-5-Methoxy-N-(4-methoxy-6-(pyridin-2-yloxy)benzo[d]isoxazol-3-yl)-1,1a,2,7 b-tetrahydrocyclopropa [c] chromene-4-sulfonamide], for which the IC50 against KAT6B was determined as 15.6 nM; on KAT6A, 1.7 nM; in test [1] it was 17.9 nM.

In the case of `COc1ccc2c(c1S(=O)(=O)Nc1noc3cc(Cn4cccn4)cc(OC)c13)OCC(F)(F)CO2` [Compound 11, N-(6-((1H-Pyrazol-1-yl)methyl)-4-methoxybenzo[d]isoxazol-3-yl)-3,3-difluoro-7-methoxy-3,4-dihydro-2H-benzo[b] [1,4]dioxepine-6-sulfonamide], the IC50 against KAT6B came to 46.8 nM; against KAT6A, 2.5 nM; in test [1], 12.7 nM.

Consider `COc1cc2c(cc1S(=O)(=O)Nc1noc3cc(Cn4cccn4)cc(OC)c13)COCCO2` [Compound 9, N-(6-((1H-Pyrazol-1-yl)methyl)-4-methoxybenzo[d]isoxazol-3-yl)-8-methoxy-2,3-dihyd ro-5H-benzo[e][1,4]dioxepine-7-sulfonamide], for which the IC50 amounted to 9.5 nM against KAT6B, 1.6 nM against KAT6A and 2.1 nM in test [1].

These data come from EP4741389A1, “KAT6 INHIBITOR” (Shanghai Qilu Pharmaceutical Research and Development …, priority 2023, dated 2025).
